Reference: patent US8765960B2, “6-((S)-1- {1-[5-(2-hydroxy-ethoxy)-pyridin-2-yl]-1H-pyrazol-3-YL}-ethyl)-3H-1,3-benzothiazol-2-one as a tarp-gamma 8 dependent AMPA receptor antagonist” (Eli Lilly and Company, priority 2012, dated 2014)

Key:
[1] = biological target: T1, TARP γ8 dependent GluA1 flop receptors (Homo sapiens, UniProt P42261+Q8WXS5); test: FLIPR antagonist functional assay, GluA1 flop co-expressed with TARP γ-8 in CHO-S cells; type: cell-based; settings: glutamate 45 μM plus CTZ 20 μM, average±SEM, n=9
T1 construct: expressed in transfected cells; host or cells: CHO-S (Invitrogen), transient transfection
T1 sequence (P42261 19-906): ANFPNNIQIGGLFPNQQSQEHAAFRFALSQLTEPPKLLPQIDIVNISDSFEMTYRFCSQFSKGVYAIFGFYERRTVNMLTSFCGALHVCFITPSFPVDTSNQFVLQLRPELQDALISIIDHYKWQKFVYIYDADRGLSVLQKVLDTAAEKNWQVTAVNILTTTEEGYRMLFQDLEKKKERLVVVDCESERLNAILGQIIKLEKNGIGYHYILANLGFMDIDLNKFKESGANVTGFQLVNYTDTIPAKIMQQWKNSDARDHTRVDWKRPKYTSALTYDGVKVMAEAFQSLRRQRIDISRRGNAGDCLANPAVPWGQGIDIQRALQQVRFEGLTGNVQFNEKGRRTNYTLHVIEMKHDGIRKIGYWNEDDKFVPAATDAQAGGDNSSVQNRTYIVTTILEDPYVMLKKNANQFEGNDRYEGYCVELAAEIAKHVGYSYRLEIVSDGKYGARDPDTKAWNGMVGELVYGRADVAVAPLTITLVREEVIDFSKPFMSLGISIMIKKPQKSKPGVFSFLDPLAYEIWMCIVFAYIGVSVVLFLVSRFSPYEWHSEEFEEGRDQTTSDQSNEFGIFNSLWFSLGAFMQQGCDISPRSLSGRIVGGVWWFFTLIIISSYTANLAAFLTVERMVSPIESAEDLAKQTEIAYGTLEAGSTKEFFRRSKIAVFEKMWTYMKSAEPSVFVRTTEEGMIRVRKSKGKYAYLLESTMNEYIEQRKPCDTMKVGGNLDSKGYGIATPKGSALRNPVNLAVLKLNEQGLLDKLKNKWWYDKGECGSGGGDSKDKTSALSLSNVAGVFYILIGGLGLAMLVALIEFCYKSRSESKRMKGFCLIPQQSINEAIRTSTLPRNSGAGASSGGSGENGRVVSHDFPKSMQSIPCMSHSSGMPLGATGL
T1 sequence (Q8WXS5 whole entry): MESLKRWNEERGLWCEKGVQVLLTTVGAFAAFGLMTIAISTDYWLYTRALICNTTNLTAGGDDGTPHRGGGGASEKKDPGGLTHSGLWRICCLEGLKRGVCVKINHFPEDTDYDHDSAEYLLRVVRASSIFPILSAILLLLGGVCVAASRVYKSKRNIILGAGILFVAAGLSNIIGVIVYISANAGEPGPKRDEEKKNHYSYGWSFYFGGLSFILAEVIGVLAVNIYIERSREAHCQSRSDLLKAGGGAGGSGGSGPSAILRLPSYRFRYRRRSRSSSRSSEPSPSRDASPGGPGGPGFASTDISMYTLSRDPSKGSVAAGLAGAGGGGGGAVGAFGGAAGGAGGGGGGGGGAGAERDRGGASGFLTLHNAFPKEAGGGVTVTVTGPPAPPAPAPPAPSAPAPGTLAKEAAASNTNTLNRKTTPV
Method: (§1) FLIPR Antagonist Functional Assay
(§2) Briefly, CHO-S (Invitrogen) cells are grown in suspension in 50/50 custom media to a density of 1×10^7 cells/ml. […]

[2] = biological target: T2, AMPA GluA1 flip isoform devoid of TARP (Homo sapiens, UniProt P42261); test: FLIPR antagonist functional assay, GluA1 flip expressed in CHO-S cells without TARP; type: cell-based; settings: no TARP, did not inhibit, assay limit 9260 nM
T2 construct: expressed in transfected cells; host or cells: CHO-S (Invitrogen), transient transfection
T2 sequence (P42261 19-906 isoform P42261-2 limits assumed): as the sequence (P42261 19-906) above, with N740G, N750S, L754V, N760S, G772K, G773D, G774S, D775G counted along it
Method: as §1, §2

[3] = biological target: T3, TARP γ2 dependent GluA1 flop receptors (Homo sapiens, UniProt P42261+Q9Y698); test: FLIPR antagonist functional assay, GluA1 flop co-expressed with TARP γ-2 in CHO-S cells; type: cell-based; settings: did not inhibit, assay limit 9260 nM
T3 construct: expressed in transfected cells; host or cells: CHO-S (Invitrogen), transient transfection
T3 sequence (P42261 19-906): as the sequence (P42261 19-906) above
T3 sequence (Q9Y698 whole entry): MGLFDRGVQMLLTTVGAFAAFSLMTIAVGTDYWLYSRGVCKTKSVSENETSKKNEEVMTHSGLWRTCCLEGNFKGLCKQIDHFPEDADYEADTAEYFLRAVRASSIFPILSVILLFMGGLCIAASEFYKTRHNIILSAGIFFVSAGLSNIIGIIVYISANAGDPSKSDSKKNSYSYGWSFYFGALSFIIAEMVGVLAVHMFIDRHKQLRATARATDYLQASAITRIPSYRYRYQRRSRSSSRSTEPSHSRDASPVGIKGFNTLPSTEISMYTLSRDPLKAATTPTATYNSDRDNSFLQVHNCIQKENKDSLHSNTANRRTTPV
Method: as §1, §2

PTZ induced seizures = test: Rat pentylenetetrazole (PTZ)-induced seizure model; type: in vivo
Text: Rat Pentylenetetrazole (PTZ)-Induced Seizure Model:
Male Sprague Dawley rats (from Harlan Sprague Dawley. Indianapolis, Ind.), weighing 90-110 grams at time of test, are housed 5 per cage with ad libitum food and water in a large colony room with a standard light cycle (lights on 6 am, lights off 6 pm). Animals are maintained in the colony room for at least 3 days before testing Animals are moved to a quiet room 1 hr. prior to the start of the test. Animals are used only once.
Animals are removed and dosed with test compound or vehicle (5% DMSO, 10% acacia and 0.05% Dow Corning® 1510-US antifoam), p.o., 10 mL/Kg, and returned to their home cage. Twenty five min. after dosing, animals are placed onto a screen and the screen is inverted 180 degrees to test for motor impairment. The animals are scored 60 sec. after inversion as follows: 0 if the animal climbs over the screen; 1 if the animal is hanging onto the bottom of the screen; 2 if the animal has fallen off the screen. After completing the screen test, animals are dosed S.C. with 35 mg/kg PTZ in saline in a volume of 1 ml/kg. The animals are then placed in an observation cage and observed for 30 min. post PTZ. […] Lethality during the observation period is also recorded. Animals are scored according to the presence of a specific seizure type at any time during the observation period.

motor impairment = test: Inverted screen test for motor impairment (within rat PTZ model); type: in vivo; settings: rats, 1-10 mg/Kg p.o., 25 min after dosing
Method: Animals are removed and dosed with test compound or vehicle (5% DMSO, 10% acacia and 0.05% Dow Corning® 1510-US antifoam), p.o., 10 mL/Kg, and returned to their home cage. Twenty five min. after dosing, animals are placed onto a screen and the screen is inverted 180 degrees to test for motor impairment. The animals are scored 60 sec. after inversion as follows: 0 if the animal climbs over the screen; 1 if the animal is hanging onto the bottom of the screen; 2 if the animal has fallen off the screen. After completing the screen test, animals are dosed S.C. with 35 mg/kg PTZ in saline in a volume of 1 ml/kg. The animals are then placed in an observation cage and observed for 30 min. post PTZ. […] Tonic seizure is defined as loss of righting with tonic hindlimb extension. Lethality during the observation period is also recorded. Animals are scored according to the presence of a specific seizure type at any time during the observation period.

formalin induced pain = test: Manual formalin induced pain model; type: in vivo, mice; settings: for % reduction in total time licking: mice
Method: Manual Formalin Induced Pain Model
The manual formalin induced pain model is well known for screening compounds for analgesic properties (Mogil J. S. et al., Heritability of nociception I: Responses of 11 inbred mouse strains on 12 measures of nociception. Pain 80 (1999) 67-82). The assay is performed in Plexiglas® boxes approx. 10 cm×10 cm×10 cm in size. A minor placed at the back of the cage allows the unhindered observation of the formalin injected paw. Non-fasted male mice (Harlan (HSD) CD1-Icr) are placed individually in the cubicles at least 60 min. prior to the experiment. All testing is conducted between 08:00 and 16:00 hr. and the testing room temperature is maintained at 21-23° C. Multiple doses of test compound (3, 10 and 30 mg/kg), vehicle (5% DMSO in 10% Acacia, 0.05% antifoam), and a positive control (tramadol 80 mg/kg in 1% HEC, 0.25% Tween 80, 0.05% antifoam) are peripherally administered (p.o.) at varying times before the formalin challenge. Formalin (20 μL of a 5% solution in 0.9% saline) is injected subcutaneously into the plantar surface of the left hind paw with a 27 gauge needle. Observation starts immediately after the formalin injection. Formalin induced pain is quantified by recording the number of seconds each licking event lasts in 5 min. intervals. The pain scoring is measured for 60 min. after the formalin injection. Two phases of pain behavior are observed as previously described (Wheeler-Aceto, H., Porreca, F. and Cowan, A., The rat paw formalin test: comparison of noxious agents, Pain 40 (1990) 229-238.). The early phase starts immediately after the formalin injection and lasts approximately 5 min., followed by the late phase that starts between minutes 10-15 with a maximum response typically observed around 25-40 min after the formalin injection. After the 60 min observation period, animals are sacrificed with CO2 followed by cervical dislocation. Of the different scoring parameters reported for the formalin test, the total time spent licking and biting the injected paw is considered to be most relevant. (Abbott et al., The formalin test: scoring properties of the first and second phases of the pain response in rats, Pain 60 (1995) 91-102; Coderre et al., The formalin test: a validation of the weighted-scores method of the behavioral pain rating, Pain 54 (1993) 43-50).) The early phase score is the sum of time spent licking (seconds) from time 0 to 5 min. The late phase score is obtained by adding the total number of seconds spent licking from minute 15 to min. 55 of the observation period. Data are presented as means with standard errors of means (±SEM). Data are evaluated by one-way analysis of variance (ANOVA) and the appropriate contrasts analyzed by Dunnett “t” test for two sided comparisons. […]

With `C[C@@H](c1ccc2[nH]c(=O)sc2c1)c1ccn(-c2ccc(OCCO)cn2)n1` (single isomer, unassigned) [Example 2] the IC50 [1] was 0.0745 ± 0.0178 µM, the “inhibition of glutamate plus CTZ activation” value [1] was “about 85.6±0.7%” and the IC50 [2] was > 9.26 µM. For the same compound, the IC50 [3] was > 9.26 µM, the ED50 (PTZ induced seizures; Rattus norvegicus, male Sprague Dawley rats, p.o., dose range 1-10 mg/Kg, PTZ 35 mg/kg S.C., read-out: estimated ED50, protection against PTZ induced seizures) was 1.74 mg/kg and the “protection against PTZ induced seizures” value (PTZ induced seizures; rats, 10 mg/Kg p.o.) was 100%. For the same compound, the “motor impairment as measured by the inverted screen test” value (motor impairment) was “without any observed motor impairment”, the ED50 (formalin induced pain; Mus musculus, po, male CD1 mice, p.o., derived from dose responses at 3, 10, 30 mg/kg, read-out: ED50, reduction of pain behavior) was 2.61 mg/kg and the “% reduction in total time licking” value (formalin induced pain; 3 mg/kg p.o.) was 53.9%. The “% reduction in total time licking” value (formalin induced pain; 10 mg/kg p.o.) was 80.4% and the “% reduction in total time licking” value (formalin induced pain; 30 mg/kg p.o.) was 90.0%.
